In patent US9260382B2, “Methods of reducing virulence in bacteria” (priority 2010, dated 2016):

How the values were obtained:
[1] = system: P. aeruginosa; experiment: P. aeruginosa bacterial growth with compound; type: cell-based, P. aeruginosa PA01
Procedure: To identify T3SS inhibitors of PA01, a promoter-probe vector pPROBE-AT containing the promoterless green fluorescent protein (gfp) gene was used to construct an exoS promoter-gfp plasmid reporter, pATexoS. PA01 containing pATexoS was cultured in T3SS-inducing medium containing dimethyl sulfoxide (DMSO; solvent of chemical compounds), or supplemented with 250 μM of each compound, and promoter activity was assessed at 6 h by measuring GFP intensity using flow cytometry. 101 compounds (58 synthesized and 43 commercially available) were screened. Compounds 027, 032, 101, and 149 repressed exoS expression at the final concentration of 250 μM by at least one standard deviation below the sample average (Z score≦−1) (FIG. 37 A-E). Z score (or standard score) indicates how many standard deviations an observation or datum is above or below the mean [z=(x−μ)/σ, where x is a raw score to be standardized, μ is the mean of the population, and σ is the standard deviation of the population].
To determine the effective concentration of compounds, the dose-dependent effect of potential inhibitors on exoS expression and bacterial growth were tested. P. aeruginosa cells carrying pATexoS were pre-cultured in LB supplemented with 200 mM NaCl and transferred to fresh LB with 200 mM NaCl, 10 mM NTA, and various concentrations of compounds (20, 50, 100, and 250 μM) or DMSO for 6 h. […] At 50 μM dosage, both 027 and 101 inhibited exoS expression at similar levels, and this inhibitory effect increased as compound concentration increased (FIG. 38A and Table 17). […] These inhibitions/inductions of exoS expression are caused by the shifting bacterial population between low-state expression cells and high-state expression cells (FIG. 40).

[2] = system: Pseudomonas syringae pv. tomato DC3000 (HR elicitation); experiment: Hypersensitive response (HR) assay in tobacco leaves; type: in vivo; conditions: Nicotiana tabacum cv. Xanthi, 18 hours post-infiltration
Procedure: Bacterial cells from overnight cultures grown in KB broth were resuspended in sterile dH2O. Cell suspensions were mixed with chemicals and allowed to sit for 30 minutes before plant inoculation. Nicotiana tabacum cv. Xanthi plants were used for HR assays. Tobacco leaves were pressure infiltrated by use of a needless syringe (Fu et al. 2006) with 1×10^8 cells/ml and 25 μM, 50 μM, 100 μM, 250 μM, or 500 μM TCA. Plants were photographed and assessed for macroscopic tissue collapse indicative of HR 18 h post-inoculation.
In DC3000, mutations in genes which encode components of the T3SS result in the inability to elicit HR in non-hosts (Collmer et al. 2000). Since TCA represses expression of hrpA (a major component of the T3SS) in vitro, the ability of TCA to suppress HR in planta was examined. DC3000 (OD600=0.1) with 25 μM, 50 μM, 100 μM, 250 μM, or 500 μM of TCA in DMSO was injected into leaves of tobacco (Nicotiana tabacum cv. Xanthi). Concentrations of DMSO which correspond to similar amounts of TCA were also injected into the tobacco plants as negative controls. Tobacco leaves were assessed for HR symptoms 18 hours post-infiltration. No visible signs of tissue damage or HR were observed when DMSO or TCA was separately infiltrated into the tobacco leaves (data not shown). […] This effect is most likely due to lack of a functional T3SS.

| SMILES | effect on bacterial growth, in words ([1]; P. aeruginosa, 250 μM) | dose-dependent effect on P. aeruginosa growth, in words ([1]; various concentrations (up to 250 μM for 101, up to 500 μM for 027), FIG. 39) | elicitation of HR by DC3000 in tobacco leaves, in words ([2]; infiltrated with 100 μM) | elicitation of HR by DC3000 in tobacco leaves, in words ([2]; infiltrated with 250 μM) |
| --- | --- | --- | --- | --- |
| O=C(/C=C/c1ccc(O)cc1)NO [Compound 103, trans-4-Hydroxycinnamohydroxamic acid] | some inhibition on bacterial growth | inverse relationship was observed between the compound concentration and bacterial growth |  |  |
| O=C(O)/C=C/c1ccccc1 [Compound 001, trans-cinnamic acid] |  |  | unable to completely block HR | completely suppressed |
